Measurements as given in patent US20250352498A1, “PHARMACEUTICAL FORMULATIONS CONTAINING PHENYLBUTYRATE AND METHODS THEREOF” (AARDVARK THERAPEUTICS INC., priority 2024, published 2025).

sodium phenylbutyrate
solubility in hydrophilic solvent (hydrophilic solvent): highly soluble | solubility in hydrophobic excipients (hydrophobic excipients): poorly soluble | water solubility (water): freely water soluble
